Test results taken from PMC6372667 (Experimental & Molecular Medicine, 2019).
Like-named read-outs stand apart in the source and are kept apart here.

Columns and labels:
[1] = target: BACE1 (human recombinant β-secretase) (Homo sapiens, UniProt P56817); assay: In vitro BACE1 FRET enzyme assay; type: biochemical; conditions: mean ± S.D. of three experiments
Source text: BACE1 (human recombinant β-secretase) ([…]) and the BACE1 FRET (fluorescence resonance energy transfer) assay kit Red were purchased from ThermoFisher Scientific (P2985; Waltham, MA, USA). […] For the cell culture experiment, Dulbecco’s modified Eagle’s medium (DMEM), Opti-MEM, fetal bovine serum (FBS), and penicillin/streptomycin were obtained from Capricorn Scientific (Ebsdorfergrund, Germany). β-secretase inhibitor III (β-SI) was purchased from Calbiochem (Darmstadt, Germany). The protease inhibitor mixture (a mixture of AEBSF, pepstatin A, E-64, bestain, leupeptin, and aprotinin) was purchased from Sigma-Aldrich (St. Louis, MO, USA). Enzyme-linked immunosorbent assay (ELISA) kits for Aβ40 and Aβ42 were obtained from IBL (Kunma, Japan). All chemicals and solvents used were reagent grade, purchased from commercial sources, and used as received.
The BACE1 FRET assay was carried out according to the manufacturer’s instructions with slight modifications as previously described. The assay was performed in a […] black plate using a multi-pipette.

C6 rat glial cells = assay: MTT cytotoxicity assay, C6; type: cell-based; conditions: 24 h
Procedure: (§1) Cytotoxicity was assessed using the MTT assay. Briefly, the cells were seeded into a 96-well plate at a density of 1×10^5 cells per well in 100 µL of corresponding media and incubated at 37 °C in an incubator under 5% CO2 tension for 24 h. The culture media were then replaced with 100 µL of fresh serum-free media in the presence of varied concentrations of pterosin derivatives, and cells were incubated for an additional 24 h. The control was treated with an equal amount of DMSO present in the assay for a 5 mM concentration. Then, 100 µL of MTT solution (0.5 mg/mL in Phosphate Buffered Saline (PBS)) was added to each culture. To measure the proportion of surviving cells, the media were replaced with 100 µL of DMSO 2 h after the administration of MTT solution. The absorbance was measured at 570 nm using a spectrophotometric plate reader (Molecular Devices, Sunnyvale, CA, USA).

[2] = system: Mouse neuroblastoma N2a cells stably overexpressing the human APP Swedish mutation (APPswe); assay: Aβ40/Aβ42 sandwich ELISA of conditioned media of APPswe neuroblastoma cells; type: cell-based
Procedure: Mouse neuroblastoma N2a cells stably overexpressing the human APP Swedish mutation (APPswe) were kindly provided by Dr. Takeshi Iwatsubo (The University of Tokyo). […] To analyze the effect of (2R)-pterosin B or (2R,3R)-pteroside C on APP metabolites, APPswe-containing neuroblastoma cells were cultured up to confluency in DMEM that contained 10 mM butyric acid to drive protein expression in the presence of 12, 60, 250, and 500 μM of (2R)-pterosin B or (2R,3R)-pteroside C for 24 h. β-SI (10 µM) was used as a positive control. The negative control included cells cultured in the absence of test compounds. […] Conditioned medium was collected in 0.5 mM phenylmethylsulfonyl fluoride and subjected to ELISA for the 40-residue peptide Aβ (1–40) (Aβ40) or the 42-residue Aβ (1–42) (Aβ42).
Aβ40 and Aβ42 ELISA was performed according to the manufacturer’s instructions. The assay was conducted in a microplate coated with anti-human Aβ35-40 mouse IgG (1A10) or anti-human Aβ38-42 mouse IgG (44A3), respectively. The microplate was added with 100 μL conditioned media, incubated overnight at 4 °C, and then washed with washing buffer. Horseradish peroxidase-conjugated anti-human Aβ11-28 mouse IgG (82E1) was added into each well, incubated at 4 °C for 1 h, and washed with washing buffer. 3,3′,5,5′-Tetramethylbenzidine as a chromogenic substrate was added to each well and incubated for 30 min. The reaction was stopped by the addition of 100 μL stop solution, and the absorbance at 450 nm was measured using a model 680 microplate reader (Bio-Rad, Hercules, CA).

[3] = system: SH-SY5Y, C6, NIH3T3 and B16F10 cell lines; assay: MTT cytotoxicity assay, all cell lines tested; type: cell-based
Procedure: as §1

Electric eel AChE [4] = target: T1, Electric eel AChE (Electrophorus electricus, UniProt O42275); assay: Kinetic analysis of AChE inhibition (Dixon and Lineweaver−Burk plots); type: biochemical; conditions: for Inhibition type AChE: Dixon and Lineweaver−Burk plots
T1 construct: purchased Sigma-Aldrich Co
Procedure: The Ki was determined by interpretation of the Dixon plot, with the value of the x-axis intercept taken as −Ki.
Dixon plots for AChE inhibition by pterosin derivatives. (2S,3R)-Pterosin C (A), (2R,3R)-pterosin C (B), and (2R)-pterosin B (C) were tested in the presence of substrate concentrations of 0.1 mM (●), 0.3 mM (○), and 0.6 mM (▼). Lineweaver-Burk plots for AChE inhibition were generated with inhibitor concentrations of 0 µM (Δ), 4 µM (▼), 20 µM (○), and 100 µM (●) for (2S,3R)-pterosin C (D) and (2R,3R)-pterosin C (E); and 0 µM (Δ), 2 µM (▼), 10 µM (○), and 50 µM (●) for (2R)-pterosin B (F).
Dixon plots for AChE inhibition by pteroside derivatives. (2R)-pteroside B (A), (2R,3R)-pteroside C (B), and (3S)-pteroside D (C) were tested in the presence of substrate concentrations of 0.1 mM (●), 0.3 mM (○), and 0.6 mM (▼). Lineweaver-Burk plots for AChE inhibition were generated with inhibitor concentrations of 0 µM (Δ), 0.8 µM (▼), 4 µM (○), and 20 µM (●) for (2R)-pteroside B (D), (2R,3R)-pteroside C (E), and (3S)-pteroside D (F).

Electric eel AChE [5] = target: T1, Electric eel AChE; assay: In vitro cholinesterase enzyme assay (Ellman), AChE; type: biochemical

T1 sequence (O42275 24-633): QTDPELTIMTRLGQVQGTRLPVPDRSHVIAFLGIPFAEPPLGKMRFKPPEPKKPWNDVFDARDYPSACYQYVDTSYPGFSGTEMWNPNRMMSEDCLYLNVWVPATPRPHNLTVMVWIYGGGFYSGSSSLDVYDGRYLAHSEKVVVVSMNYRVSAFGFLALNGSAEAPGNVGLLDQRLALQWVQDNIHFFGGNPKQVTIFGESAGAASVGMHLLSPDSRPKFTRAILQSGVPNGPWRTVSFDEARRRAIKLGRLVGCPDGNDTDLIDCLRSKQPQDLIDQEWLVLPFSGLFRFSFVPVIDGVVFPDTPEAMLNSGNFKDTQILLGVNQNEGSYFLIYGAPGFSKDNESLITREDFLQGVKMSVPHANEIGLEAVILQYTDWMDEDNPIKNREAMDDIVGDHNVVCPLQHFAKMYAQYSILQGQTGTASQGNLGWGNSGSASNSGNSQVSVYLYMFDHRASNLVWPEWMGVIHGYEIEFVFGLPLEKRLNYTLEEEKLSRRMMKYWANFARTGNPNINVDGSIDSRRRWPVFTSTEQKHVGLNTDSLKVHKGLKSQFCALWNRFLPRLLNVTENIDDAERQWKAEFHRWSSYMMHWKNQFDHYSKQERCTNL
Sequence of BACE1 (human recombinant β-secretase) (P56817 46-501): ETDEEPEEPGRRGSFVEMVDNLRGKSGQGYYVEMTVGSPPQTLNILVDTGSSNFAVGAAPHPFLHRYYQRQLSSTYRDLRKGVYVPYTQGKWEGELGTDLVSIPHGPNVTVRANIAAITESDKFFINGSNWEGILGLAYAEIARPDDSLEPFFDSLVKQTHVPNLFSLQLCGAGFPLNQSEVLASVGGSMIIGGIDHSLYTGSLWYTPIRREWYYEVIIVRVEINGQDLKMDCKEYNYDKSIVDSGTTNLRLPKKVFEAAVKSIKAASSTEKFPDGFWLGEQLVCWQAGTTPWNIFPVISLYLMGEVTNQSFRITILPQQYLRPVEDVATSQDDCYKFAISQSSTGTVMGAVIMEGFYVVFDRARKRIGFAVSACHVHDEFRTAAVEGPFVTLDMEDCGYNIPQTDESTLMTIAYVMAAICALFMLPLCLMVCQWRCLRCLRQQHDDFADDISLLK

Structure (SMILES) | IC50 [1] [µM] | LD50 Based on MTT Assay, C6 (C6 rat glial cells) | Secretion of Aβ peptides, effect ([2]; 500 μM) | Secreted Aβ40 peptides, effect ([2]; 500 µM, 24 h) | Reduction of Aβ40 peptide secreted into media ([2]; 500 μM, 24 h, P < 0.01) | LD50, cell lines tested [3] | Ki (Electric eel AChE [4]) [µM] | Inhibition type AChE (Electric eel AChE [4]) | IC50 (Electric eel AChE [5]) [µM] | AChE-inhibitory activity fold lower than berberine (Electric eel AChE [5]; ratio of IC50) | Secreted Aβ42 peptide, effect ([2]; 500 µM, 24 h, P < 0.05) | Ki (Electric eel AChE [4]; determined by Dixon plot, read-out: Ki AChE) [µM] | IC50 (Electric eel AChE [5]; mean ± S.D. of three experiments, read-out: IC50 AChE) [µM]
Cc1cc2c(c(C)c1CCO)C(=O)[C@H](C)C2 [(2R)-Pterosin B, (2R)-pterosin B] | 29.6 ± 3.5 | >5,000 µM | significantly decreased | significantly decreased | up to 50% | above 5 mM | 12.1 | Mixed-type | 16.2 ± 1 | approximately 40 fold |  |  | 
Cc1cc2c(c(C)c1CCOC1OC(CO)C(O)C(O)C1O)C(=O)C(C)C2O [(2R,3R)-Pteroside C, (2R,3R)-pteroside C] | 9.74 ± 1.9 | >5,000 µM | significantly decreased |  |  | above 5 mM |  | Mixed-type |  |  | significantly decreased | 8.13 | 3.77 ± 0.38
